# Tests used:
# VEGFR1 = biological target: T1, VEGFR1 (Homo sapiens, UniProt P17948); test: Kinase inhibition, Mobility Shift Assay/IMAP, VEGFR1; assay type: biochemical
# T1 construct: purchased Invitrogen PR6731B
# Source text: (§1) This assay directly monitored the ability of compounds to inhibit kinase phosphorylation by measuring non-phosphorylated and phosphorylated substrates in kinase reactions by using Mobility Shift Assays/IMAP™ analysis.
# (§2) Read the conversion ratio data on CaliperEZ Reader II. Convert conversion rates into inhibition ratio data.
# (§3) “Min” indicates the readout of the control well without the addition of enzymes; and “Max” indicates the readout of the control well with the addition of DMSO Fit IC50 values with XL Fit excel add-in version […].
# (§4) X indicates the log value of compound concentration, and Y indicates the inhibition ratio (% inhibition).
# VEGFR3 = biological target: T2, VEGFR3 (Homo sapiens, UniProt P35916); test: Kinase inhibition, Mobility Shift Assay/IMAP, VEGFR3; assay type: biochemical
# T2 construct: purchased Invitrogen PV4129
# Source text: as §1, §2, §3, §4
# TIE2 = biological target: T3, TIE2 (Homo sapiens, UniProt Q02763); test: Kinase inhibition, Mobility Shift Assay/IMAP, TIE2; assay type: biochemical
# T3 construct: purchased BPS 40270
# Source text: as §1, §2, §3, §4
# VEGFR2 = VEGFR2 (Homo sapiens, UniProt P35968); test: Kinase inhibition, Mobility Shift Assay/IMAP, VEGFR2; assay type: biochemical; design: purchased Carna 08-191
# Summary of the method: (§5)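 Substrate conversion (phosphorylated vs non-phosphorylated) read by mobility shift on Caliper EZ Reader II and converted to % inhibition relative to no-enzyme and DMSO controls. IC50 fitted from % inhibition versus log compound concentration.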
# EGFR = biological target: T4, EGFR (Homo sapiens, UniProt P00533); test: Kinase inhibition, Mobility Shift Assay/IMAP, EGFR; assay type: biochemical
# T4 construct: purchased Carna 08-115
# Summary of the method: as §5
# melanin = test: Binding capacity of compounds to melanin; assay type: in vitro ADME, cuttlefish (Sepia officinalis); conditions: cuttlefish (Sepia officinalis), melanin suspension (1 mg/mL); 1 mg/mL melanin in PBS pH 7.4, 2 μM compound, 2 h at 37° C.; read-out: Fu % (percentage of free drug)
# Summary of the method: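 Compound (2 μM final) incubated with washed Sepia melanin (1 mg/mL, PBS pH 7.4) 2 h at 37° C with shaking; PBS with 0.1% BSA served as blank. Supernatants quantified by LC-MS/MS; bound fraction Fb derived from melanin versus blank concentration.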
# T1 sequence (P17948 27-1338): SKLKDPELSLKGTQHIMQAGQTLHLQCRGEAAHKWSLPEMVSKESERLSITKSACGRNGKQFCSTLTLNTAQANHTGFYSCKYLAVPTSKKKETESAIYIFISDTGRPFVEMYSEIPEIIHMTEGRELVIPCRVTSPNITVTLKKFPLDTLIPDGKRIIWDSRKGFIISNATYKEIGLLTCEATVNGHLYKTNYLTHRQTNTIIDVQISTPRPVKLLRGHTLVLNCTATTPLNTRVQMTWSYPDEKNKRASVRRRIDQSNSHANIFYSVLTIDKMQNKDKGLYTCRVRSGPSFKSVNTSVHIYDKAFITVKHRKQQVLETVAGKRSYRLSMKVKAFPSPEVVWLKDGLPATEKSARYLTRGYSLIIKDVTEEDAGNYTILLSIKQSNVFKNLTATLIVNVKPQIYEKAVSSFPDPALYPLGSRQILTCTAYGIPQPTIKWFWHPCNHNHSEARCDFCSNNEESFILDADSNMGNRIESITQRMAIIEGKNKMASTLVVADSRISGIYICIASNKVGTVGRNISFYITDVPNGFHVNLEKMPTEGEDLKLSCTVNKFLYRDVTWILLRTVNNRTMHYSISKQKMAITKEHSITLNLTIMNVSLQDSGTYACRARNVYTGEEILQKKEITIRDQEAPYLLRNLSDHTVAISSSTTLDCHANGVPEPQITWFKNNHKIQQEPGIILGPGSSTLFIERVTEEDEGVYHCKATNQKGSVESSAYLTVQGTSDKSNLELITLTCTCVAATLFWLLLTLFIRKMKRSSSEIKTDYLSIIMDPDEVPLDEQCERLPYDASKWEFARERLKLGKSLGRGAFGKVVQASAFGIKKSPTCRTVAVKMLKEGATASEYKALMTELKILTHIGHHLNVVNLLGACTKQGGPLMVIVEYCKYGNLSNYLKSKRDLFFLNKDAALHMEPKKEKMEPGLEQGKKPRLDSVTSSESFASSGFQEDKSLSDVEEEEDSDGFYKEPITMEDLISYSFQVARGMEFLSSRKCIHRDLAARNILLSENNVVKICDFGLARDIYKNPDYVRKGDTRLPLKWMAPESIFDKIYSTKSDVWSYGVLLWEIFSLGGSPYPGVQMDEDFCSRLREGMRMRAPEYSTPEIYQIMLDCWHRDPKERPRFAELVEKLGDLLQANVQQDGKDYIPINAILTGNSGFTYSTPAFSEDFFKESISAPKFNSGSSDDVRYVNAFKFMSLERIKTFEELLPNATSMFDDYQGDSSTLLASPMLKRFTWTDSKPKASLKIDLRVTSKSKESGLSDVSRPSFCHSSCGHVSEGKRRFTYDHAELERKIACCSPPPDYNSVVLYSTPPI
# T4 sequence (P00533 669-1210 limits assumed): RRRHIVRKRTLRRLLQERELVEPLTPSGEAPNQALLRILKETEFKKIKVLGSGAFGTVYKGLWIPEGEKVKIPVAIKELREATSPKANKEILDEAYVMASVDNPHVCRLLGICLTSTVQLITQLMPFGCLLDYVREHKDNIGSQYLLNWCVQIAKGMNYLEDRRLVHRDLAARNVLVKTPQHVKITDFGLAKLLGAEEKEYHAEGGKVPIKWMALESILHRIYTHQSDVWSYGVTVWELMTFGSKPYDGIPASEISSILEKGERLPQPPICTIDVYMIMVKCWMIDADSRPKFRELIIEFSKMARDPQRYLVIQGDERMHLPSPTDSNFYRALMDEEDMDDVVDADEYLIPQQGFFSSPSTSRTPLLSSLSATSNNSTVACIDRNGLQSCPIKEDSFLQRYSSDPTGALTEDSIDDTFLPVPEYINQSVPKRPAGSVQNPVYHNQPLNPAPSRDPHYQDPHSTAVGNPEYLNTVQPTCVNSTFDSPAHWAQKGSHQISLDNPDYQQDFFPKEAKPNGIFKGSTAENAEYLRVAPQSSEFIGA
# T3 sequence (Q02763 23-1124): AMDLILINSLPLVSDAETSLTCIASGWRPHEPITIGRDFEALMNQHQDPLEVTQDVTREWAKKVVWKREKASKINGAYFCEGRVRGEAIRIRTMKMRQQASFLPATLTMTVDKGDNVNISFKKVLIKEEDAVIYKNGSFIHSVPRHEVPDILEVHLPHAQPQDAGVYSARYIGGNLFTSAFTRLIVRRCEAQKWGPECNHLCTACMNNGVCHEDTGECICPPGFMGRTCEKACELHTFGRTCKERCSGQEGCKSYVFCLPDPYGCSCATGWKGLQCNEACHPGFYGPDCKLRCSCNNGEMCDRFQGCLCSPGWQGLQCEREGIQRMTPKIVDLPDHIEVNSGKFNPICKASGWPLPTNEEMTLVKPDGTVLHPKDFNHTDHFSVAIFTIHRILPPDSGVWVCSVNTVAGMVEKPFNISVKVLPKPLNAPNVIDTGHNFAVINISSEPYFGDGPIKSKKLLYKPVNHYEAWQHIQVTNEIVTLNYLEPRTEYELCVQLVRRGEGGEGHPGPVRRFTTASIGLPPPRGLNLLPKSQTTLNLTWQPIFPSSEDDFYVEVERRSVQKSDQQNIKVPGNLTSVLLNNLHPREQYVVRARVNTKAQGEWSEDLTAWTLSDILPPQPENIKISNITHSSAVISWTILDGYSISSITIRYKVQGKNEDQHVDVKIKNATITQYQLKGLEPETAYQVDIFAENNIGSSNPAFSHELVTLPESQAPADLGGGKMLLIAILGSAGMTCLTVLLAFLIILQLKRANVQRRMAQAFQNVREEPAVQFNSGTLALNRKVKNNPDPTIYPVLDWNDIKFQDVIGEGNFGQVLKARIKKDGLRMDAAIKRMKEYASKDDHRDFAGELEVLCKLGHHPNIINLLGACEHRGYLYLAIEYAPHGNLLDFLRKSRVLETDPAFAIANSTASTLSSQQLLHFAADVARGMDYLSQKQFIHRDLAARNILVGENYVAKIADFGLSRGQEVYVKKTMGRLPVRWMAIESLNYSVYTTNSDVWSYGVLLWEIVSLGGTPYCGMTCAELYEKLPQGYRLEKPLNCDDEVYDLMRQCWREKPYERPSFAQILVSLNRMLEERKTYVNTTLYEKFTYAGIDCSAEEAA
# T2 sequence (P35916 25-1363): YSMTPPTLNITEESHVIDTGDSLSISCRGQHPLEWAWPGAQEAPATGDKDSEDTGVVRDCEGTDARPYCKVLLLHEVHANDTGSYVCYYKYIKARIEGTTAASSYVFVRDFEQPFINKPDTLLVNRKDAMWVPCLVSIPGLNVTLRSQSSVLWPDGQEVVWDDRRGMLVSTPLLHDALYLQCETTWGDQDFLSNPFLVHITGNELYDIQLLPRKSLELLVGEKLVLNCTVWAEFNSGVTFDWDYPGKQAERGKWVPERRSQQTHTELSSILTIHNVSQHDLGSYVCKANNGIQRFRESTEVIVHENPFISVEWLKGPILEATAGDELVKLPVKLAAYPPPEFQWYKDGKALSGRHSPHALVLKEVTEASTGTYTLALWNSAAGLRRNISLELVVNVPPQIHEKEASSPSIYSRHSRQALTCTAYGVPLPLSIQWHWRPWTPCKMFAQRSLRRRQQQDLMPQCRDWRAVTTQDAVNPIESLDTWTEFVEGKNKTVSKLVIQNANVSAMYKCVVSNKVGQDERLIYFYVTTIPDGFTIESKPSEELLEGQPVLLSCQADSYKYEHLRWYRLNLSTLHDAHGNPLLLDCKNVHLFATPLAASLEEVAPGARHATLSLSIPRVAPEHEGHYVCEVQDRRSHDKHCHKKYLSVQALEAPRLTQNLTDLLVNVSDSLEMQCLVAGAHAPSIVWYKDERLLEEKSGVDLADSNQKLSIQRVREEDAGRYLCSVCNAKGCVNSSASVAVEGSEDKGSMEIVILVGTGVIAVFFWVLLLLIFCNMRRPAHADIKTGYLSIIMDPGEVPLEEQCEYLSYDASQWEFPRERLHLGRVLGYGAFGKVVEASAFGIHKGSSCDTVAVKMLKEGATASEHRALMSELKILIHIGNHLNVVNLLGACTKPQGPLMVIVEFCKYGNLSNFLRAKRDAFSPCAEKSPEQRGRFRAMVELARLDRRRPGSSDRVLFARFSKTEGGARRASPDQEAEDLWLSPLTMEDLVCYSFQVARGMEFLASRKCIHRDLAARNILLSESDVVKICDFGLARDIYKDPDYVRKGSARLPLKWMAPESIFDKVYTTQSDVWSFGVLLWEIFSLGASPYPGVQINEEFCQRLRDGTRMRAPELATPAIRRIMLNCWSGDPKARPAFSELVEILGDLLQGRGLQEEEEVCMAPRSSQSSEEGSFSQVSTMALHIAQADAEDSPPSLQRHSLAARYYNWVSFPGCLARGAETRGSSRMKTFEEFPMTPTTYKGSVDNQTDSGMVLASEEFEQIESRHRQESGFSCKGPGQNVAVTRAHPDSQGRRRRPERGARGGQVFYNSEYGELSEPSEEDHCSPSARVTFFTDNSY
# Chain of VEGFR2 (P35968 790-1356 limits assumed): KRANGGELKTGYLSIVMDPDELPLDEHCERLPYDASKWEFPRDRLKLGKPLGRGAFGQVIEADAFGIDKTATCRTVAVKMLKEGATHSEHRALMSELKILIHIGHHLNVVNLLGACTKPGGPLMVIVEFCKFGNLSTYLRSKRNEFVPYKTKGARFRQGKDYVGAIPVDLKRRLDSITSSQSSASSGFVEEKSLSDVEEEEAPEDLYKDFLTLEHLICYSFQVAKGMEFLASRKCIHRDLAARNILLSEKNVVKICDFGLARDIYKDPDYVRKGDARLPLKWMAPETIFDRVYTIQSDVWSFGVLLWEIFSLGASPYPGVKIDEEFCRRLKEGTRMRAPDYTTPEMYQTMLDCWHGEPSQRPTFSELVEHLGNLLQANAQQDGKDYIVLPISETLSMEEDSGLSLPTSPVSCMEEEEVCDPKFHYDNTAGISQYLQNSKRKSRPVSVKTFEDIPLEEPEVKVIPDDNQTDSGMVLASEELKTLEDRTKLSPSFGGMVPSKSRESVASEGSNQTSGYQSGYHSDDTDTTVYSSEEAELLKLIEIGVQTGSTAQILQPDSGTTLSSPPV
Structure (SMILES),IC50 (VEGFR1) [nM],IC50 (VEGFR3) [nM],IC50 (TIE2) [nM],IC50 (VEGFR2) [nM],IC50 (EGFR) [nM],"fraction unbound at 2 h, 2 μM (melanin)"
"NC(=O)c1c(OCc2ccc3ccoc3c2)nsc1NC(=O)NCCCCN1CCCC1 [Compound T054, 3-(benzofuran-6-ylmethoxy)-5-(3-(4-(pyrrolidin-1-yl)butyl)ureido)isothiazole-4-carboxamide]",34.3,38.8,157,17.7,–,–
"NC(=O)c1c(OCc2cc3c(cc2F)CCO3)nsc1NC(=O)NCCCN1CC[C@@H](F)C1 [Compound T080, 3-[(5-fluoro-2,3-dihydrobenzofuran-6-yl)methoxy]-5-[3-[(3R)-3-fluoropyrrolidin-1-yl]propylcarbamoylamino]isothiazole-4-carboxamide]",13.5,26.1,88,–,8050,0.0582
"NC(=O)c1c(OCc2cc3c(cc2F)CCO3)nsc1NC(=O)NCCN1CC[C@@H](F)C1 [Compound T081, 3-[(5-fluoro-2,3-dihydrobenzofuran-6-yl)methoxy]-5-[2-[(3R)-3-fluoropyrrolidin-1-yl]ethylcarbamoylamino]isothiazole-4-carboxamide]",21.9,23.9,–,16,19600,0.0632
"NC(=O)c1c(OCc2cc3c(cc2F)CCO3)nsc1NC(=O)NCCN1CCCCC1 [Compound T082, 3-[(5-fluoro-2,3-dihydrobenzofuran-6-yl)methoxy]-5-[2-(1-piperidyl)ethylcarbamoylamino]isothiazole-4-carboxamide]",27.8,48.5,203,24,15500,0.0757
"NC(=O)c1c(OCc2ccc3c(c2)OCC3)nsc1NC(=O)NCCC1CCN(C2CC2)CC1 [Compound T083, 5-[2-(1-cyclopropyl-4-piperidyl)ethylcarbamoylamino]-3-(2,3-dihydrobenzofuran-6-ylmethoxy)isothiazole-4-carboxamide]",25.6,22.3,164,12.7,18100,0.0749
"NC(=O)c1c(OCc2ccc3c(c2)OCC3)nsc1NC(=O)NCCC1CCN(CCF)CC1 [Compound T084, 3-(2,3-dihydrobenzofuran-6-ylmethoxy)-5-[2-[1-(2-fluoroethyl)-4-piperidyl]ethylcarbamoylamino]isothiazole-4-carboxamide]",30.1,37.1,221,14.1,15800,–
"NC(=O)c1c(OCc2cc(F)cc(C(=O)NC3CC3)c2)nsc1NC(=O)NCCCCN1CCCC1 [Compound T085, 3-[[3-(cyclopropylcarbamoyl)-5-fluoro-phenyl]methoxy]-5-(4-pyrrolidin-1-ylbutylcarbamoylamino)isothiazole-4-carboxamide]",4.95,10.6,4590,1.7,> 60000,0.0612
"CN1CCC(CCNC(=O)Nc2snc(OCc3cc(F)c4c(c3)OCC4)c2C(N)=O)CC1 [Compound T089, 3-((4-fluoro-2,3-dihydrobenzofuran-6-yl)methoxy)-5-(3-(2-(1-methylpiperidin-4-yl)ethyl)ureido)isothiazole-4-carboxamide]",13.5,9.9,135,6.77,15100,0.0235

# — patent US20260217698A1 (BEYANG THERAPEUTICS CO., LTD., priority 2022, published 2026)
